According to publication PMC8776995 (Frontiers in Chemistry, 2022):
Where “and” joins values, the source holds several entries; their conditions need not be identical. Identical values can stand only once.

What was measured:
[1] = tested on: AKT phosphorylation (S473) in H460 cells; assay: Western blot, p-AKT/AKT in H460; conditions: for p-AKT/AKT: band density ratio; for p-AKT/AKT relative to DMSO: ratio normalised to DMSO
Experimental: We also performed western blot analysis to evaluate the impact of e4 and e12 on EGFR signaling in PC-9 and H460 cells.
H460 cells were seeded in six-well plates with serum-free medium overnight, and then treated complete medium containing 0.1% DMSO, various concentrations (0.1, 1 and 10 μM) of either compound e4 or e12 for 2 h, respectively. […] Then the H460 cells were treated with complete medium containing EGF (10 ng/ml) for 5 min. Then the cells were harvested and washed with PBS, centrifuged, resuspended in 100–200 μl of RIPA lysis buffer containing Protease and Phosphatase Inhibitor Cocktail (1X), and then centrifuged for 5 min at 12,000 rpm at 4°C. The supernatant was used for protein analysis. […] Then the membrane was washed 5 min (X3) and incubated at 1:3,000 dilution of anti-rabbit secondary antibodies or 1:1,000 dilution of anti-mouse secondary antibodies for 1 h at RT. After washing with TBST 5 min (X3), protein bands were developed by chemiluminescence. The protein levels were quantified by the gray values of the bands in the resulting images by ImageJ, and the control group was used as the standard. […] The PC-9 cells were harvested and analyzed as above.

[2] = tested on: CCND1, CCNA2, CCNB1, CDK2, CDK6 RNA in PC-9 cells; assay: qPCR assay for cell cycle-related gene analysis; type: cell-based, human; conditions: for CCNB relative mRNA expression (2^-ddCt vs NC, normalised to beta-Actin) / CCND1 relative mRNA expression (2^-ddCt vs NC, normalised to beta-Actin) / CDK6 relative mRNA expression (2^-ddCt vs NC, normalised to beta-Actin): qPCR SYBR_GREEN, NC = 1; for RQ / RQ, CCNA / RQ, CCNB / RQ, CCND1: endogenous control b-Actin, reference sample NC; for 2^ΔΔCт CCNA / 2^ΔΔCт CCNB / 2^ΔΔCт CCND1 / 2^ΔΔCт CDK2 / 2^ΔΔCт CDK6: Repeat 1-3, relative to NC = 1; for RQ, CCNA / RQ, CCNB / RQ, CCND1: qPCR SYBR Green
From the text: To better understand the mechanisms underlying cell cycle arrest induced by e4 and e12 in NSCLC cells, we assessed the expression levels of a few genes involved in cell cycle regulation, including cyclin D1 (CCND1), cyclin A2 (CCNA2), cyclin B1 (CCNB1), cyclin-dependent kinase 2 (CDK2), and cyclin-dependent kinase 6 (CDK6) in PC-9 by qPCR. […] CCNA2 is known to bind and activate CDK2 and thus promotes the transition through G1/S and G2/M. CCNB1 and CCND1 are essential to mitosis and G1/S transition respectively. While G2/M arrest weas not detected, the changes in these gene expression profiles interpret the G1/S arrests in PC-9 cells treated with e4 and e12. PC-9 cells exposed to the compounds for various periods should be examined further.
Total RNA of cells was extracted and cDNA was synthesized. The primers for the target products were designed as in Table 3.

[3] = PC-9, 16 h, compared with DMSO control

For `COCCOc1cc2ncnc(Nc3cccc(-c4cn(-c5ccc(C)cc5)nn4)c3)c2cc1OCCOC` [e12, [6,7-Bis-(2-methoxy-ethoxy)-quinazolin-4-yl]-[3-(1-p-tolyl-1H-[1,2,3]triazol-4-yl)-phenyl]-amine], the p-AKT/AKT ([1]; H460, 0.1 uM) was 1.267, the “p-AKT/AKT relative to DMSO” value ([1]; H460, 0.1 uM) was 1.274 and the p-AKT/AKT ([1]; H460, 1 uM) was 0.9055. The “p-AKT/AKT relative to DMSO” value ([1]; H460, 1 uM) was 0.9102, the p-AKT/AKT ([1]; H460, 10 uM) was 0.594 and the “p-AKT/AKT relative to DMSO” value ([1]; H460, 10 uM) was 0.5972. The “phosphorylation of AKT (western blot)” value ([1]; H460, especially at 10 μM) was “suppressed”, the “CCNB relative mRNA expression (2^-ddCt vs NC, normalised to beta-Actin)” value ([2]; 4uM) was 0.9828 and the “CCND1 relative mRNA expression (2^-ddCt vs NC, normalised to beta-Actin)” value ([2]; 4uM) was 0.7886. The “CDK6 relative mRNA expression (2^-ddCt vs NC, normalised to beta-Actin)” value ([2]; 4uM) was 0.5928, the “CCNB relative mRNA expression (2^-ddCt vs NC, normalised to beta-Actin)” value ([2]; 8uM) was 0.8452 and the “CCND1 relative mRNA expression (2^-ddCt vs NC, normalised to beta-Actin)” value ([2]; 8uM) was 0.7649. For the same molecule, the “CDK6 relative mRNA expression (2^-ddCt vs NC, normalised to beta-Actin)” value ([2]; 8uM) was 0.8101, the “CCNB relative mRNA expression (2^-ddCt vs NC, normalised to beta-Actin)” value ([2]; 12uM) was 0.7825 and the “CCND1 relative mRNA expression (2^-ddCt vs NC, normalised to beta-Actin)” value ([2]; 12uM) was 0.6173. For the same molecule, the “CDK6 relative mRNA expression (2^-ddCt vs NC, normalised to beta-Actin)” value ([2]; 12uM) was 0.676, the RQ ([2]; CCNA mRNA, 4uM) was 0.8394 and the RQ ([2]; CCNA mRNA, 8uM) was 0.6204. The RQ ([2]; CCNA mRNA, 12uM) was 0.7362, the “2^ΔΔCт CCNA” value ([2]; 4uM) was 0.5435 and 0.6447 and 0.8394 and the “2^ΔΔCт CCNA” value ([2]; 8uM) was 0.582 and 0.5272 and 0.6204. For the same molecule, the “2^ΔΔCт CCNA” value ([2]; 12uM) was 0.5914 and 0.5472 and 0.7362, the RQ ([2]; CCNB mRNA, 4uM) was 1.03 and the RQ ([2]; CCNB mRNA, 8uM) was 0.8431. The RQ ([2]; CCNB mRNA, 12uM) was 1.0421, the “2^ΔΔCт CCNB” value ([2]; 4uM) was 0.9828 and 0.8732 and 1.03 and the “2^ΔΔCт CCNB” value ([2]; 8uM) was 0.8452 and 0.8244 and 0.8431. For the same molecule, the “2^ΔΔCт CCNB” value ([2]; 12uM) was 0.7825 and 0.7721 and 1.0421, the “2^ΔΔCт CCND1” value ([2]; CCND1, 4uM) was 0.7886 and 0.963 and 1.159 and the “2^ΔΔCт CCND1” value ([2]; CCND1, 8uM) was 0.7649 and 0.9528 and 0.8372. For the same molecule, the “2^ΔΔCт CCND1” value ([2]; CCND1, 12uM) was 0.6173 and 0.9545 and 0.694, the RQ ([2]; CCND1 mRNA, 4uM) was 1.159 and the RQ ([2]; CCND1 mRNA, 8uM) was 0.8372. The RQ ([2]; CCND1 mRNA, 12uM) was 0.694, the “2^ΔΔCт CDK2” value ([2]; CDK2, 4uM) was 0.9262 and 1.002 and 1.127 and the “2^ΔΔCт CDK2” value ([2]; CDK2, 8uM) was 0.848 and 1.034 and 0.9665. For the same molecule, the “2^ΔΔCт CDK2” value ([2]; CDK2, 12uM) was 0.7751 and 1.0315 and 0.9502, the RQ ([2]; CDK2 mRNA, 4uM) was 1.127 and the RQ ([2]; CDK2 mRNA, 8uM) was 0.9665. The RQ ([2]; CDK2 mRNA, 12uM) was 0.9502, the “2^ΔΔCт CDK6” value ([2]; CDK6, 4uM) was 0.5928 and 0.8604 and 0.9896 and the “2^ΔΔCт CDK6” value ([2]; CDK6, 8uM) was 0.8101 and 1.1509 and 0.9153. The “2^ΔΔCт” value ([2]; CDK6, 8uM, normalized to WT (NC), run 20201020-2) was 0.9153, the “2^ΔΔCт CDK6” value ([2]; CDK6, 12uM) was 0.676 and 1.27 and 0.9852 and the RQ ([2]; CDK6 mRNA, 4uM) was 0.9896. The RQ ([2]; CDK6 mRNA, 8uM) was 0.9153, the RQ ([2]; CDK6 mRNA, 12uM) was 0.9852 and the “RNA level of CCNA2” value [2, 3] was “significantly decreased”. The “RNA level of CCNB1” value [2, 3] was “significantly decreased”, the “RQ, CCNA” value ([2]; CCNA mRNA, 4uM) was 0.6447 and the “RQ, CCNA” value ([2]; CCNA mRNA, 8uM) was 0.5272. The “RQ, CCNA” value ([2]; CCNA mRNA, 12uM) was 0.5472, the “RQ, CCNB” value ([2]; CCNB mRNA, 4uM) was 1.09 and the “RQ, CCNB” value ([2]; CCNB mRNA, 8uM) was 1.029. For the same molecule, the “RQ, CCNB” value ([2]; CCNB mRNA, 12uM) was 0.964, the “RQ, CCND1” value ([2]; CCND1 mRNA, 4uM) was 0.963 and the “RQ, CCND1” value ([2]; CCND1 mRNA, 8uM) was 0.9528.
